# In patent US11130766B2, “Deuterated thienopiperidine derivatives, manufacturing method, and application thereof” (JIANGSU TASLY DIYI PHARMACEUTICAL CO., LTD., priority 2015, dated 2021):
# Marks after values point to notes of the source that are not given here.
# How the values were obtained:
# [1] = tested on: ADP induced platelet aggregation; assay: ADP induced platelet aggregation, maximum aggregation rate after administration to rats; assay type: in vivo, Wistar male rats; set-up: unit not given here; conditions: 3 mg/kg
# Experimental: Addition of small dose of ADP (concentration less than 0.9 μmol/L) into the platelet suspension could lead to rapid platelet aggregation, followed by quick disaggregation; if moderate dose of ADP (about 1.0 μmol/L) was added, then the second irreversible aggregation phase appeared not long after the end of the first aggregation phase and the disaggregation. The maximum aggregation rate of the irreversible aggregation phase was used to evaluate the effect of the test samples on the function of blood coagulation.
# Animals: Wistar male rats, weighing 230-250 g, were purchased from Vital River Laboratory Animal Technology Co., Ltd.
# Reagent: ADP, Sigma Corporation.
# Test samples: 16 test samples were provided by the Tasly Group; referred to China patent application 201310428052.4 for manufacturing method of TSC-1˜4 and TSC-6˜9.
# Dose of administration: the test samples were suspended with 0.25% CMC, administered 3 mg/kg weight, volume of administration: 2 mL.
# 2 Hours after administration, the rats were anesthetized with pentobarbital sodium, and blood was drawn from the abdominal aorta, anticoagulated with sodium citrate with a ratio of 1:9, and centrifuged to obtain the platelet-rich plasma and platelet-poor plasma, with the mixed ratio of the platelet-poor plasma to platelet-rich plasma=3:1.
# esterase = assay: Esterase hydrolysis rates of TSD-8 and clopidogrel bisulfate, in vitro incubation in rat whole blood; assay type: in vitro ADME; set-up: sample test results (concentration) Num. 1 / sample test results (concentration) Num. 2 / sample test results (concentration) Num. 3 / sample test results (concentration) Mean: unit not given here; conditions: for sample test results (concentration) Mean / sample test results (concentration) Num. 1 / sample test results (concentration) Num. 2 / sample test results (concentration) Num. 3: rat whole blood, 37° C., 30 μg/mL
# [2] = tested on: Rat Arteriovenous Thrombus Loop Model; conditions: SD rat, 1.0 mg/kg oral gavage, 2 h after administration, 15 min circulation
# From the text: genus, strain: SD rat, • Provider: Slac • Weight: 250-350 g • Sex: male • Animal number: 30
# Apparatus and Materials • Swab, dry tampon, alcohol pad, anerdian tampon. • Surgical scissor, ophthalmic forceps, hemostatic forceps, microsurgical scissor, microsurgical forceps, artery clamps. • 3-0 surgical suture, thick PE tube (I.D.*O.D.=1.14 mm*1.63 mm, 8 cm long), think PE tube (I.D.*O.D.=0.72 mm*1.22 mm, 6 cm long). • Surgical board, binding rope, timer, precise electronic balance, weighing paper. • Syringe, normal saline.
# 7. Experimental Method • After arrival, the animals were let adapt to the environment for 1 week and fasted for 16 hours prior to the test. • The arteriovenous blood loop circulation was started 2 h after oral administration of the test compounds and 4 h after oral administration of clopidogrel. • The rats were anesthetized with pentobarbital sodium (50 mg/kg, ip) 15 min before the arteriovenous blood loop circulation was started. • The left external jugular vein and the right carotid artery were separated and inserted with thin PE tubes respectively. • Two PE tubes were connected with another thick PE tube with a length of 8 cm to form a circulation passage. There's a 6 cm surgical suture (3-0) in the thick PE tube. • 15 min after the circulation passage was opened, the blood flow was blocked, the filament was taken out and weighed after the blood was sucked out. The thrombus weight was obtained after subtraction of the weight of the filament itself.
# Rat Tail Bleeding Model = conditions: SD rat, 1.0 mg/kg oral gavage, 2 h after administration
# Experimental: genus, strain SD rat, • Provider: Slac • Weight: 250-350 g • Sex: male • Animal number: 30
# Experimental Method: • The animals were allowed adapt to the environment after arrival for 1 week and fasted for 16 hours prior to the experiment. • The tail bleeding time started to be recorded 2 h after oral administration of the test compounds and 4 h after oral administration of clopidogrel. • The rats were anesthetized with pentobarbital sodium (50 mg/kg, ip) 10 min prior to the recording of the tail bleeding time, after the rat was completely anesthetized and reaching the detection time, the tail was cut at 1.3 mm from the rat tail-tip with a scissor and perpendicularly immerged into a saline at 37° C. Timing recording was not started until the blood flow appeared. • The timing recording was stopped when the bleeding time interval was longer than 20 seconds. The maximum observation time for the blood flow was set for 40 minutes. If it was longer than 40 minutes, the timing recording was stopped and the time was recorded as 40 minutes.
# [3] = ADP induced, rats, blood drawn 2 hours after administration
compound,measurement,setting,value
[2H]C([2H])([2H])OC(=O)[C@H](c1ccccc1Cl)N1CCc2sc(OP(=O)(OCC)OCC)cc2C1 [TSD-2],Maximum Platelet Aggregation Rate,[1]; [3],32.7 ± 5.33
[2H]C([2H])([2H])OC(=O)[C@H](c1ccccc1Cl)N1CCc2sc(OP(=O)(OC(C)C)OC(C)C)cc2C1 [TSD-3],Maximum Platelet Aggregation Rate,[1]; [3],28.4 ± 3.27
[2H]C([2H])([2H])OC(=O)[C@H](c1ccccc1Cl)N1CCc2sc(OCOP(=O)(O)O)cc2C1 [TSD-8],Maximum Platelet Aggregation Rate,[1]; [3],16.3 ± 4.16
same,hydrolysis rate in the rat whole blood,"esterase; compared with clopidogrel, FIG. 1",slower than that of clopidogrel
same,sample test results (concentration) Mean,esterase; 10 min,391.50
same,sample test results (concentration) Num. 1,esterase; 10 min,531
same,sample test results (concentration) Num. 2,esterase; 10 min,252
same,sample test results (concentration) Mean,esterase; 20 min,290.00
same,sample test results (concentration) Num. 1,esterase; 20 min,336
same,sample test results (concentration) Num. 2,esterase; 20 min,242
same,sample test results (concentration) Num. 3,esterase; 20 min,292
same,sample test results (concentration) Mean,esterase; 30 min,275.33
same,sample test results (concentration) Num. 1,esterase; 30 min,255
same,sample test results (concentration) Num. 2,esterase; 30 min,291
same,sample test results (concentration) Num. 3,esterase; 30 min,280
same,sample test results (concentration) Mean,esterase; 40 min,223.00
same,sample test results (concentration) Num. 1,esterase; 40 min,222
same,sample test results (concentration) Num. 2,esterase; 40 min,219
same,sample test results (concentration) Num. 3,esterase; 40 min,228
same,sample test results (concentration) Mean,esterase; 50 min,101.67
same,sample test results (concentration) Num. 1,esterase; 50 min,112
same,sample test results (concentration) Num. 2,esterase; 50 min,103
same,sample test results (concentration) Num. 3,esterase; 50 min,90
same,sample test results (concentration) Mean,esterase; 60 min,112.00
same,sample test results (concentration) Num. 1,esterase; 60 min,115
same,sample test results (concentration) Num. 2,esterase; 60 min,123
same,sample test results (concentration) Num. 3,esterase; 60 min,98
same,sample test results (concentration) Mean,esterase; 90 min,74.63
same,sample test results (concentration) Num. 1,esterase; 90 min,76.3
same,sample test results (concentration) Num. 2,esterase; 90 min,77.4
same,sample test results (concentration) Num. 3,esterase; 90 min,70.2
same,sample test results (concentration) Mean,esterase; 100 min,55.40
same,sample test results (concentration) Num. 1,esterase; 100 min,52.7
same,sample test results (concentration) Num. 2,esterase; 100 min,63.2
same,sample test results (concentration) Num. 3,esterase; 100 min,50.3
same,sample test results (concentration) Mean,esterase; 110 min,47.90
same,sample test results (concentration) Num. 1,esterase; 110 min,45.7
same,sample test results (concentration) Num. 2,esterase; 110 min,51.5
same,sample test results (concentration) Num. 3,esterase; 110 min,46.5
same,sample test results (concentration) Mean,esterase; 120 min,34.90
same,sample test results (concentration) Num. 1,esterase; 120 min,34.3
same,sample test results (concentration) Num. 2,esterase; 120 min,38.7
same,sample test results (concentration) Num. 3,esterase; 120 min,31.7
COC(=O)[C@H](c1ccccc1Cl)N1CCc2sc(OP(=O)(O)O)cc2C1 [TSC-6],Thrombus (mg),[2],31.4* mg
same,Maximum Platelet Aggregation Rate,"[1]; rat, in vivo",29.6 ± 5.33
same,Tail Bleeding Time,Rat Tail Bleeding Model,635 s
"CC(=O)Oc1cc2c(s1)CCN(C(C(=O)C1CC1)c1ccccc1F)C2 (stereo not shown) [prasugrel, reference compound]",Maximum Platelet Aggregation Rate,[1]; [3],20.72 ± 8.84
[2H]C([2H])([2H])OC(=O)[C@H](c1ccccc1Cl)N1CCc2sc(OP(=O)(Oc3ccccc3)Oc3ccccc3)cc2C1 [TSD-4],Maximum Platelet Aggregation Rate,[1]; [3],36.2 ± 4.16
[2H]C([2H])([2H])OC(=O)[C@H](c1ccccc1Cl)N1CCc2sc(OP(=O)(OC)OC)cc2C1 [TSD-1],Maximum Platelet Aggregation Rate,[1]; [3],35.6 ± 3.35
[2H]C([2H])([2H])OC(=O)[C@H](c1ccccc1Cl)N1CCc2sc(OC(C)=O)cc2C1 [I-1],Thrombus,[2],25.6 mg
same,Tail Bleeding Time,Rat Tail Bleeding Model,950 s
[2H]C([2H])([2H])OC(=O)[C@H](c1ccccc1Cl)N1CCc2sc(OCOP(=O)(OC(C)(C)C)OC(C)(C)C)cc2C1 [TSD-7],Maximum Platelet Aggregation Rate,[1]; [3],27.1 ± 6.21
